Experiments:
[1] = test system: adult participants hospitalized for severe COVID-19; experiment: Phase 1b severe COVID-19 study: 7-point clinical scale; assay type: in vivo, human; conditions: 600 mg
Source text: Exploratory clinical assessments endpoints included: • Change from baseline in ferritin and LDH at Day 7 and EOT • Proportion of participants per category of the 7-point clinical scale at EOT • Time to improvement by 2 points in category of 7-point clinical scale • Quantitative SARS-COV-2 viral load in blood at baseline and on Day 3, 5, 7 and EOT
The 7-point clinical scale is described below: • 1. Death • 2. Hospitalized, on invasive mechanical ventilation or ECMO • 3. Hospitalized, on non-invasive ventilation or high flow oxygen devices • 4. Hospitalized, requiring supplemental oxygen • 5. Hospitalized, not requiring supplemental oxygen—requiring ongoing medical care (COVID-19 related or otherwise) • 6. Hospitalized, not requiring supplemental oxygen—no longer requires ongoing medical care • 7. Not hospitalized

[2] = test system: peripheral cytokine and biomarker levels; experiment: Phase 1b severe COVID-19 study: peripheral cytokine and biomarker levels; assay type: in vivo, human
Source text: The biomarker variables included pro-inflammatory cytokines (such as IL 4, IL-6, IL-10, IL-17, TNFα, and IFNγ) and RIPK1 PD cytokines/chemokines (such as MIP1α and MIP1β) that are elevated in participants with SARS-CoV-2.
The exploratory PD/biomarker endpoint was the change from baseline in peripheral cytokine and biomarker levels up to EOT.
Each analyte was selected, and the assay analytically validated based on reports in the literature and in-house research.

[3] = EOT, Efficacy population (N = 41)
[4] = 600 mg, Day 7, LOCF, Safety population
[5] = 600 mg, Day 7, not statistically significant
[6] = Day 7 vs baseline, LOCF, Safety population

SMILES: CN1C(=O)[C@@H](NC(=O)c2nnc(Cc3ccccc3)[nH]2)COc2cccnc21 [RIPK1 Inhibitor, (S)-5-benzyl-N-(5-methyl-4-oxo-2,3,4,5-tetrahydropyrido[3,2-b][1,4]oxazepin-3-yl)-4H-1,2,4-triazole-3-carboxamide]
- 7-point clinical scale category 3, participants [1, 3]: 0 n
- 7-point clinical scale category 5, participants [1, 3]: 0 n
- 7-point clinical scale category 6, participants [1, 3]: 0 n
- median time to improvement by at least 2 points in the category of 7-point scale ([1]; Kaplan-Meier, Efficacy population): 8 days
- participants with a 7-point clinical scale score of 5 or lower ([1]; end of study treatment period or early discontinuation): 15%
- IL-6 fold change from baseline [2, 4]: 0.4
- IL-10 fold change from baseline [2, 4]: 0.48
- chemokine (C-X-C motif) Ligand 10 fold change from baseline [2, 4]: 0.26
- interferon gamma fold change from baseline [2, 4]: 0.44
- IL-6, ratio of relatives changes (RIPK1 Inhibitor versus placebo) [2, 5]: 0.63
- IL-10, ratio of relatives changes (RIPK1 Inhibitor versus placebo) [2, 5]: 0.82
- chemokine (C-X-C Motif) Ligand 10, ratio of relatives changes (RIPK1 Inhibitor versus placebo) [2, 5]: 0.7
- monocyte chemotactic protein 1, ratio of fold changes between RIPK1 Inhibitor and placebo [2, 5]: 0.85
- Chemokine (C-C Motif) Ligand 13 (pg/mL): RIPK1 Inhibitor 600 mg vs Placebo Fold-Change ([2]; Day 7, LOCF, Safety population): 1.15 (60)
- Chemokine (C-X-C Motif) Ligand 10 (pg/mL): RIPK1 Inhibitor 600 mg vs Placebo Fold-Change ([2]; Day 7, LOCF, Safety population): 0.7 (56)
- Eotaxin-1 (pg/mL): RIPK1 Inhibitor 600 mg vs Placebo Fold-Change ([2]; Day 7, LOCF, Safety population): 1.03 (65)
- Interferon Gamma (pg/mL): RIPK1 Inhibitor 600 mg vs Placebo Fold-Change ([2]; Day 7, LOCF, Safety population): 1.03 (66)
- Interleukin 6 (pg/mL): RIPK1 Inhibitor 600 mg vs Placebo Fold-Change ([2]; Day 7, LOCF, Safety population): 0.63 (66)
- Interleukin 8 - Cytokines (pg/mL): RIPK1 Inhibitor 600 mg vs Placebo Fold-Change ([2]; Day 7, LOCF, Safety population): 0.8 (66)
- Interleukin 10 (pg/mL): RIPK1 Inhibitor 600 mg vs Placebo Fold-Change ([2]; Day 7, LOCF, Safety population): 0.82 (66)
- Macrophage Inflammatory Protein 1 Beta (pg/mL): RIPK1 Inhibitor 600 mg vs Placebo Fold-Change ([2]; Day 7, LOCF, Safety population): 0.85 (60)
- Macrophage-Derived Chemokine (pg/mL): RIPK1 Inhibitor 600 mg vs Placebo Fold-Change ([2]; Day 7, LOCF, Safety population): 1.2 (60)
- Monocyte Chemotactic Protein 1 (pg/mL): RIPK1 Inhibitor 600 mg vs Placebo Fold-Change ([2]; Day 7, LOCF, Safety population): 0.85 (60)
- Ratio of Interleukin 6 and Interleukin 10 (RATIO): RIPK1 Inhibitor 600 mg vs Placebo Fold-Change ([2]; Day 7, LOCF, Safety population): 0.86 (66)
- Tumor Necrosis Factor alpha (pg/mL): RIPK1 Inhibitor 600 mg vs Placebo Fold-Change ([2]; Day 7, LOCF, Safety population): 0.98 (66)
- okine (C-C Motif) Ligand 17: RIPK1 Inhibitor 600 mg vs Placebo Fold-Change ([2]; Day 7, LOCF, Safety population): 1 (60)
- Chemokine (C-C Motif) Ligand 13 (pg/mL): RIPK1 Inhibitor 600 mg Fold-Change [2, 6]: 1.31 (41)
- Chemokine (C-X-C Motif) Ligand 10 (pg/mL): RIPK1 Inhibitor 600 mg Fold-Change [2, 6]: 0.26 (37)
- Eotaxin-1 (pg/mL): RIPK1 Inhibitor 600 mg Fold-Change [2, 6]: 1.21 (45)
- Interferon Gamma (pg/mL): RIPK1 Inhibitor 600 mg Fold-Change [2, 6]: 0.44 (47)
- Interleukin 6 (pg/mL): RIPK1 Inhibitor 600 mg Fold-Change [2, 6]: 0.4 (47)
- Interleukin 8 - Cytokines (pg/mL): RIPK1 Inhibitor 600 mg Fold-Change [2, 6]: 0.71 (47)
- Interleukin 10 (pg/mL): RIPK1 Inhibitor 600 mg Fold-Change [2, 6]: 0.48 (47)
- Macrophage Inflammatory Protein 1 Beta (pg/mL): RIPK1 Inhibitor 600 mg Fold-Change [2, 6]: 1.07 (41)
- Macrophage-Derived Chemokine (pg/mL): RIPK1 Inhibitor 600 mg Fold-Change [2, 6]: 1.05 (41)
- Monocyte Chemotactic Protein 1 (pg/mL): RIPK1 Inhibitor 600 mg Fold-Change [2, 6]: 0.69 (41)
- Ratio of Interleukin 6 and Interleukin 10 (RATIO): RIPK1 Inhibitor 600 mg Fold-Change [2, 6]: 0.87 (47)
- Tumor Necrosis Factor alpha (pg/mL): RIPK1 Inhibitor 600 mg Fold-Change [2, 6]: 0.85 (47)
- okine (C-C Motif) Ligand 17: RIPK1 Inhibitor 600 mg Fold-Change [2, 6]: 1.56 (41)

Source: patent US20230233576A1, “ECLITASERTIB FOR USE IN TREATING CONDITIONS INVOLVING SYSTEMIC HYPERINFLAMMATORY RESPONSE” (priority 2020, published 2023)
